Measured values taken from patent publication US20060069132A1, “Azolecarboxamide herbicides” (priority 2004, published 2006).

Key:
soybean = assay: Test C pre-/postemergence herbicide test; type: in vivo, Glycine max; conditions: preemergence
Outline: (§1)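 Pre- and postemergence application, solvent/surfactant formulation; post at 1- to 4-leaf stage (2–18 cm). Greenhouse 12–14 d. Visual rating vs controls, 0 = no effect, 100 = complete control.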

morningglory = assay: Test A pre-/postemergence herbicide test; type: in vivo, Ipomoea spp.
Outline: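 Visual injury rating on a 0–100 scale (0 no effect, 100 complete control) versus untreated controls, about ten days after treatment in greenhouse. Pre: directed soil spray onto seeded sandy loam. Post: spray to runoff on plants 2–10 cm tall at one- to two-leaf stage.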

[1] = system: smallflower umbrella sedge; assay: Test C flooded paddy test; type: in vivo, Cyperus difformis; conditions: for Plant response rating, Sedge, Umbrella: 500 g ai/ha, visual rating after 12 to 14 days
yellow nutsedge = assay: Test C pre-/postemergence herbicide test; type: in vivo, Cyperus esculentus; conditions: preemergence
Outline: as §1

rice [2] = assay: Test B pre-/postemergence herbicide test; type: in vivo, Oryza sativa; conditions: preemergence
Outline: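 Herbicidal effect was judged by eye on a 0–100 scale after plants stood 13 to 15 days in the greenhouse following pre- or postemergence treatment with surfactant-containing formulations.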

eastern black nightshade = assay: Test C pre-/postemergence herbicide test; type: in vivo, Solanum ptycanthum; conditions: preemergence
Outline: as §1

goosegrass = assay: Test C pre-/postemergence herbicide test; type: in vivo, Eleusine indica; conditions: preemergence
Outline: as §1

rice [3] = assay: Test C flooded paddy test; type: in vivo, Oryza sativa; conditions: for Plant response rating, Rice: 500 g ai/ha, visual rating after 12 to 14 days
Outline: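 Injury scored visually against controls on a 0 (no effect) to 100 (complete control) scale, 12 to 14 days after treatment in greenhouse. Flooded paddy plants treated at 2-leaf stage; postemergence plants at 1- to 4-leaf stage, 2 to 18 cm tall.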

[4] = 125 g ai/ha, scale 0 (no effect) to 100 (complete control), visual, 12 to 14 days
[5] = 62 g ai/ha, scale 0 to 100 (0 no effect, 100 complete control)
[6] = 125 g ai/ha, scale of 0 to 100, 0 is no effect, 100 is complete control
[7] = 250 g ai/ha, scale of 0 to 100, 0 is no effect, 100 is complete control
[8] = scale 0 to 100 (0 no effect, 100 complete control)
[9] = 500 g ai/ha, scale 0 to 100 (0 no effect, 100 complete control), visual, 12 to 14 days
[10] = 125 g ai/ha, scale 0 to 100 (0 no effect, 100 complete control)
[11] = 125 g ai/ha, 0 = no effect, 100 = complete control
[12] = 500 g ai/ha, visual rating, 0 = no effect, 100 = complete control

Structure (SMILES)	Sedge, Umbrella plant response rating [1, 7]	Plant response rating, Sedge, Umbrella [1, 8]	Plant response rating, Nutsedge, Yellow (yellow nutsedge; [4])	Plant response rating, Nightshade (eastern black nightshade; [4])	Plant response rating, Goosegrass (goosegrass; [4])	Rice plant response rating (rice [3]; [7])	Plant response rating, Rice (rice [3]; [8])	Plant response rating, Soybean (soybean; 62 g ai/ha, scale 0 to 100)	Plant response rating, Soybean (soybean; 250 g ai/ha, scale 0-100)	Plant response rating, Soybean (soybean; [9])	Sedge, Umbrella plant response rating ([1]; 62 g ai/ha, scale 0 to 100)	Sedge, Umbrella plant response rating [1, 10]	Plant response rating, Nutsedge, Yellow (yellow nutsedge; 62 g ai/ha, scale 0 to 100)	Plant response rating, Nutsedge, Yellow (yellow nutsedge; 250 g ai/ha, scale 0-100)	Plant response rating, Nutsedge, Yellow (yellow nutsedge; [9])	Rice plant response rating (0 to 100 scale) (rice [2]; [11])	Plant response rating, Rice (rice [2]; [12])	Plant response rating, Nightshade (eastern black nightshade; 62 g ai/ha, scale 0 to 100)	Plant response rating, Nightshade (eastern black nightshade; 250 g ai/ha, scale 0-100)	Plant response rating, Nightshade (eastern black nightshade; [9])	further results
CCOC(=O)c1cc(NC(=O)c2cc(C(C)(C)C)nn2CC)ccc1OCC [Compound 95]	95	95	0	95	50	55	65														Plant response rating, Soybean (soybean; 31 g ai/ha, scale 0 to 100): 0; Plant response rating (0 = no effect, 100 = complete control), Soybean (soybean; 62 g ai/ha): 0; Plant response rating, Soybean (soybean; [4]): 0; Morningglory plant response rating (morningglory; Postemergence, 500 g ai/ha, 0 to 100 scale, 0 no effect, 100 complete control): 10; Plant response rating, Morningglory (morningglory; Postemergence, 2000 g ai/ha, 0 to 100 scale, 0 no effect, 100 complete control): 15; Morningglory plant response rating (morningglory; Preemergence, 500 g ai/ha, visual rating, 0 to 100 scale (0 no effect, 100 complete control)): 30; Morningglory plant response rating (morningglory; Preemergence, 2000 g ai/ha, 0 to 100 scale, 0 no effect, 100 complete control): 55; Sedge, Umbrella plant response rating [1, 5]: 85; Sedge, Umbrella plant response rating [1, 6]: 90; Plant response rating, Nutsedge, Yellow (yellow nutsedge; 31 g ai/ha, scale 0 to 100): 0; Plant response rating (0 = no effect, 100 = complete control), Nutsedge, Yellow (yellow nutsedge; 62 g ai/ha): 0; Plant response rating, Rice (rice [2]; 500 g ai/ha, visual rating 0-100, 0 no effect, 100 complete control): 50; Plant response rating, Rice (rice [2]; 125 g ai/ha, 0 to 100 scale, 0 is no effect, 100 is complete control): 30; Plant response rating, Nightshade (eastern black nightshade; 31 g ai/ha, scale 0 to 100): 90; Plant response rating (0 = no effect, 100 = complete control), Nightshade (eastern black nightshade; 62 g ai/ha): 95; Plant response rating, Goosegrass (goosegrass; 31 g ai/ha, scale 0 to 100): 0; Plant response rating (0 = no effect, 100 = complete control), Goosegrass (goosegrass; 62 g ai/ha): 0; Rice plant response rating (rice [3]; [5]): 10; Rice plant response rating (rice [3]; [6]): 10
CCn1nc(C(C)(C)C)cc1C(=O)Nc1ccc(OC)c(OC)c1 [Compound 298]	70	80	0	100	95	65	75	0	5	60	0	0	0	20	30	40	60	100	100	100	Plant response rating, Goosegrass (goosegrass; 62 g ai/ha, scale 0 to 100): 85; Plant response rating, Goosegrass (goosegrass; 250 g ai/ha, scale 0-100): 100; Plant response rating, Goosegrass (goosegrass; [9]): 100; Rice plant response rating (rice [3]; 62 g ai/ha, scale 0 to 100): 45; Rice plant response rating (rice [3]; [10]): 60
CCn1nc(C2(C)CC2)cc1C(=O)Nc1cc(C(=O)N2CC=CC2)ccc1F [Compound 301]	90	95	5	95	90	75	85	15	20	45	80	90	0	10	20	10	70	90	100	100	Plant response rating, Goosegrass (goosegrass; 62 g ai/ha, scale 0 to 100): 50; Plant response rating, Goosegrass (goosegrass; 250 g ai/ha, scale 0-100): 100; Plant response rating, Goosegrass (goosegrass; [9]): 100; Rice plant response rating (rice [3]; 62 g ai/ha, scale 0 to 100): 50; Rice plant response rating (rice [3]; [10]): 55
